Experimental data: US20080306275A1, “NOVEL HETEROARYL DERIVATIVE” (Danippon Sumitomo Pharma Co., Ltd., priority 2003, published 2008)
Where a name gives a salt, the structure may show the parent alone.

Tests used:
human PPARγ = biological target: T1, human PPARγ (Homo sapiens, UniProt P37231); assay: GAL4-PPARγ luciferase reporter assay in COS-1 cells; type: cell-based; conditions: relative luciferase activity, vehicle (DMSO) control regarded as 1, 24 hours
T1 construct: human PPARγ (including amino acids residue 204-505); expressed in transfected cells; host or cells: COS-1
T1 sequence (P37231 204-505): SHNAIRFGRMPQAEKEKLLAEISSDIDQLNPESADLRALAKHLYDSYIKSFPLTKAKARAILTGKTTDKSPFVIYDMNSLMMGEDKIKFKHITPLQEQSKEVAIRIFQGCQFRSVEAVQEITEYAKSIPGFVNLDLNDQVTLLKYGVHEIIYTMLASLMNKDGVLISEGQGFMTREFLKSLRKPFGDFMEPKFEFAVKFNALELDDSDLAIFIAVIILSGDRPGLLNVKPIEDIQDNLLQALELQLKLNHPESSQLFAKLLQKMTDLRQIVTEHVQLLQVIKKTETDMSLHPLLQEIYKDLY
Excerpt: (§1) By inserting a gene fragment encoding the ligand binding domain of human PPARα (including amino acid residues 167-468) or a gene fragment encoding the ligand binding domain of human PPARγ (including amino acids residue 204-505) into a multicloning site of expressing vector pM containing DNA binding domain of yeast GAL4 protein (Clonetech), a vector plasmid expressing a fused protein of GAL4 protein DNA binding domain and human PPARα or γ ligand binding domain.
(§2) As a reporter plasmid, pGL3-Basic Vector containing firefly luciferase gene (Promega Corporation) was used wherein Gal4-responsive sequence UAS and rabbit β-globin promoter were inserted.
(§3) For the modification of genetic transformation efficiency, a plasmid containing lacZ gene, pβgal control (Clonetech), was used.
(§4) COS-1 cells were cultured in the phenol red free Dulbecco's Modified Eagles Medium (DMEM) (Gibco) supplemented with 5% activated carbon/dextran stripped fetal bovine serum at 37° C. with 5% carbon dioxide. The COS-1 cells were plated at a concentration of 5×10^4 cells/well into a 24-well plate, and the plate was incubated overnight. The medium was replaced with a fresh medium supplemented without 5% activated carbon/dextran treated fetal bovine serum. Further, the cells were transfected using Lipofectamine plus reagent (Gibco) with plasmid GAL4-PPARα- or γ-expressing plasmid (5 ng), the reporter plasmid (50 ng), pβgal control (350 ng) per well. After incubation for 4 hours, the medium was changed with a fresh medium supplemented with 5% activated carbon/dextran treated fetal bovine serum. Then, the compound of the present invention was added thereto in such an amount that the final concentration thereof is 1 μM or 10 μM. After the cultivation for 24 hours, the cells were lysed with a solution for cell lysis accompanied to the Luciferase Assay System (Promega Corporation). The luciferase activity therein was measured by a luminometer using the reagent for measuring luciferase which was also accompanied to said System. The β-galactosidase activity was measured using a β-galactosidase enzyme assay system (Promega Corporation) to correct the generic transfection efficiency.
(§5) The PPARα- or γ-agonistic activity was expressed as a relative activity where the luciferase activity in the well to which the vehicle (DMSO) was added as control was regarded as 1.

human PPARα = biological target: T2, human PPARα (Homo sapiens, UniProt Q07869); assay: GAL4-PPARα luciferase reporter assay in COS-1 cells; type: cell-based; conditions: relative luciferase activity, vehicle (DMSO) control regarded as 1, 24 hours
T2 construct: human PPARα (including amino acid residues 167-468); expressed in transfected cells; host or cells: COS-1
T2 sequence (Q07869 167-468): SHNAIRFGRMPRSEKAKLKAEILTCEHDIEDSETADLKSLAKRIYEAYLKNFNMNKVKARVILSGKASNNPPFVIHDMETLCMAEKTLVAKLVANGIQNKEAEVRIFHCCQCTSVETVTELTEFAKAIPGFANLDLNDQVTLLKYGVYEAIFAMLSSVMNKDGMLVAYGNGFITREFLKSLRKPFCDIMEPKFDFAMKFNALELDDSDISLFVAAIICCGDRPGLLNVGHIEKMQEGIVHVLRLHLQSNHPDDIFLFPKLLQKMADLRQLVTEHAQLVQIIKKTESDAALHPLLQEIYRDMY
Excerpt: as §1, §2, §3, §4, §5

male db/db mice = assay: Hypoglycemic activity in db/db mice; type: in vivo; conditions: 30 mg/kg orally once a day for 2 weeks, blood glucose level on the last day
Experimental: The test compounds as disclosed in Examples were dissolved or suspended in a 0.5% carbomethyl cellulose solution, and orally administered to male db/db mice (7 to 8 weeks old) at a final dose of 30 mg/kg once a day for 2 weeks. On the last day, the blood was taken at the tail vein, and immediately thereafter, perchloric acid was added for removing proteins, and the blood glucose level was measured by Glucose CII Test Wako (Wako Pure Industries, Ltd.).
In addition, the hypoglycemic activity was calculated by the following equation.

SMILES	PPARγ-agonistic activity (10 μM) (human PPARγ)	PPARα-agonistic activity (10 μM) (human PPARα)	Hypoglycemic Activity (%) (male db/db mice)
Cc1ccc(C(=O)c2cccn2C/C=C/c2cccc(COC(C)(C)C(=O)O)c2)cc1 [Example 1B, 2-Methyl-2-[(3-{(1E)-3-[2-(4-methylbenzoyl)-1H-pyrrol-1-yl]prop-1-en-1-yl}-benzyl)oxy]propionic acid]	4.7	8.0	21.2
Cc1ccc(C(=O)c2cccn2C/C=C/c2cccc(COC(C(=O)O)c3ccccc3)c2)cc1 (stereo not shown) [Example 2B, [(3-{(1E)-3-[2-(4-Methylbenzoyl)-1H-pyrrol-1-yl]prop-1-en-1-yl}benzyl)oxy]-(phenyl)acetic acid]	5.6	7.8	–
Cc1ccc(C(=O)c2cccn2C/C=C/c2ccc(COC(C)(C)C(=O)O)cc2)cc1 [Example 3B, 2-Methyl-2-[(4-{(1E)-3-[2-(4-methylbenzoyl)-1H-pyrrol-1-yl]prop-1-en-1-yl}-benzyl)oxy]propionic acid]	7.5	12.6	17.8
Cc1ccc(C(=O)c2cccn2C/C=C/c2cccc(COCC(=O)O)c2)cc1 [Example 4, [(3-{(1E)-3-[2-(4-Methylbenzoyl)-1H-pyrrol-1-yl]prop-1-en-1-yl}benzyl)oxy]acetic acid]	3.4	12.6	–
Cc1ccc(C(=O)c2cccn2C/C=C/c2cccc(CO[C@H](C)C(=O)O)c2)cc1 [Example 5B, (2R)-2-[(3-{(1E)-3-[2-(4-Methylbenzoyl)-1H-pyrrol-1-yl]prop-1-en-1-yl}benzyl)-oxy]propionic acid]	5.4	11.6	–
Cc1ccc(C(=O)c2cccn2C/C=C/c2ccc(CO[C@H](C)C(=O)O)cc2)cc1 [Example 6B, (2R)-2-[(4-{(1E)-3-[2-(4-Methylbenzoyl)-1H-pyrrol-1-yl]prop-1-ene-1-yl}benzyl)-oxy]propionic acid]	5.5	10.1	63.3
Cc1ccc(C(=O)c2cccn2C/C=C/c2cccc(CO[C@@H](C)C(=O)O)c2)cc1 [Example 7B, (2S)-2-[(3-{(1E)-3-[2-(4-Methylbenzoyl)-1H-pyrrol-1-yl]prop-1-en-1-yl}benzyl)-oxy]propionic acid]	2.9	10.8	–
CCC(OCc1cccc(/C=C/Cn2cccc2C(=O)c2ccc(C)cc2)c1)C(=O)O (stereo not shown) [Example 9B, 2-[(3-{(1E)-3-[2-(4-methylbenzoyl)-1H-pyrrol-1-yl]prop-1-en-1-yl}benzyl)oxy]-butyric acid]	5.3	8.6	–
Cc1ccc(C(=O)c2cccn2C/C=C/c2ccc(CO[C@@H](C)C(=O)O)cc2)cc1 [Example 11, (2S)-2-[(4-{(1E)-3-[2-(4-Methylbenzoyl)-1H-pyrrol-1-yl]prop-1-en-1-yl}benzyl)-oxy]propionic acid 1,3-dihydroxy-2-(hydroxymethyl)propan-2-aminium salt]	–	–	64.4
Cc1ccc(C(=O)c2nccn2C/C=C/c2ccc(CO[C@H](C)C(=O)O)cc2)cc1 [Example 27]	–	–	51.0
COc1ccc(C(=O)c2nccn2C/C=C/c2ccc(CO[C@H](C)C(=O)O)cc2)cc1 [Example 29]	–	–	43.0
Cc1ccc(C(=O)c2nc3ccccc3n2C/C=C/c2ccc(COC(C)(C)C(=O)O)cc2)cc1 [Example 38]	–	–	18.2
Cc1ccc(C(=O)c2cccn2C/C=C/c2ccc(COCc3nnn[nH]3)cc2)cc1 [compound 51]	8.9	17.7	–
